The subject of one data set is E. faecalis (29212). The data set is described as follows: microbe, parasite or virus in culture. The note with it: Enterococcus faecalis, read-out: MIC50 E. faecalis.
Data set [1] concerns ampicillin- and streptomycin-resistant E. coli (D31).
In the next data set the test system is B. Subtilis (ATCC 6633). As to the kind of experiment: microbe, parasite or virus in culture. The note with it: Bacillus subtilis, ATCC6633, read-out: MIC50 B. subtilis.
Data set [2] deals with B. anthracis (32F2 Sterne). As to the kind of experiment: microbe, parasite or virus in culture. The note with it: Bacillus anthracis, read-out: MIC50 B. anthracis.
The subject of data set [3] is ampicillin- and streptomycin-resistant E. coli (D31). The data set is described as follows: microbe, parasite or virus in culture. Particulars: Escherichia coli, read-out: MIC50 E. coli.
The test system of data set [4] is multi-drug resistant strain S. aureus.
In the next data set the test system is fresh sheep erythrocytes. The data set is described as follows: hemolytic assay. Particulars: sheep, 30 min, pH 7.2. It is filed as cell-based. As to the method: Hemolytic activity of model peptides was assessed on fresh sheep erythrocytes (Fitzgerald Inc., Concord, Mass.). […] The resulting supernatant was diluted by a factor of 40 in distilled water. The absorbances of the supernatant at λ=540 nm (OD540) were measured in the UV Spectrophotometer. […] Hemolytic index (HI) was defined as HI═HD50/IC50.

The subject of data set [5] is multi-drug resistant strain S. aureus. The data set is described as follows: microbe, parasite or virus in culture. The note with it: Staphylococcus aureus, read-out: MIC50 S. aureus.

In brackets after ≈: the same amount, converted by molar mass. Like-named read-outs stand apart in the source and are kept apart here.

For `CC(C)(O/N=C(\C(=O)N[C@@H]1C(=O)N2C(C(=O)[O-])=C(C[n+]3ccccc3)CS[C@H]12)c1csc(N)n1)C(=O)O` [Ceftazidime], the MIC50 in the data set on E. faecalis (29212) is 14 µg/mL (≈ 25.6 µM); in the data set with B. Subtilis (ATCC 6633) it was 6.2 µg/mL (≈ 11.3 µM); in data set [2], 91 µg/mL (≈ 166 µM); in data set [3], 44 µg/mL (≈ 80.5 µM); in data set [5] it was 63 µg/mL (≈ 115 µM). Moreover, the “MIC50 E. coli” value in data set [1] (75 mM NaCl) and in data set [1] (150 mM NaCl) was 44 µg/mL (≈ 80.5 µM) throughout. Moreover, the “MIC50 S. aureus” value in data set [4] (75 mM NaCl) and in data set [4] (150 mM NaCl) was 63 µg/mL (≈ 115 µM) throughout. For the same compound, in the data set on fresh sheep erythrocytes, the “HD50 (peptide concentration corresponding to 50% hemolysis)” value is over 2000 µg/mL.

The values are drawn from patent US7902327B2, “Dendrimeric peptides, pharmaceutical compositions and methods of using the same” (New York University School of Medicine, priority 2007, dated 2011).
